For one test, the system named is ADCY3. Description: ADCY3 mRNA level by qRT-PCR after demethylation. Format: cell-based, human. To be noted: KATO III cells, 10 μM, 96 hrs, relative to the negative control, FIG. 5E. On the procedure:
qRT-PCR reactions were performed using a LightCycler 480 (Roche Applied Science, UK) and ABI 7500 Fast Real-Time PCR system (Applied Biosystems). Results were quantified either by using β-actin for normalization (relative quantification), or by standard curve-based absolute quantification. To investigate the effects of promoter demethylation on ADCY3 expression, KATO III cells were incubated for 96 hrs in a culture medium with or without 5-Aza-2′-deoxycytidine (5-Aza-dC; Sigma Aldrich, USA) at a final concentration of 10 μM, and the mRNA level of ADCY3 was measured using qRT-PCR.
In general terms: In qPCR the cycle at which signal appears reflects the starting amount.

The next test relates to ADCY3 promoter. Put plainly: ADCY3 promoter methylation after in vitro demethylation (bisulfite sequencing). Format: cell-based, human. The settings on record: KATO III cells, 10 μM, 96 hrs, FIG. 5D. On the procedure:
To assay the methylation status of the ADCY3 promoter, genomic DNA was bisulfite-treated using the EZ DNA Methylation-Gold Kit (ZYMO Research, USA), and treated with methylation-specific PCR primers (Table 3) that were designed using EpiDesigner (Sequenom, USA).
A methylation-specific high-resolution melting assay (MS-HRM) was performed using 10 ng of bisulfite-treated genomic DNA and ResoLight dye in a LightCycler 480 (Roche Applied Science) according to the manufacturer's protocol. Results were analyzed using Gene Scanning software (Roche). For bisulfite sequencing, the promoter region containing 39 CpG sites was amplified from the genomic DNA of bisulfite-treated gastric cells, cloned into the TOPO-TA vector (Invitrogen), and sequenced using the 3730xl DNA analyzer (Applied Biosystems).
To investigate the effects of promoter demethylation on ADCY3 expression, KATO III cells were incubated for 96 hrs in a culture medium with or without 5-Aza-2′-deoxycytidine (5-Aza-dC; Sigma Aldrich, USA) at a final concentration of 10 μM, and the mRNA level of ADCY3 was measured using qRT-PCR.

Consider `Nc1ncn([C@H]2C[C@H](O)[C@@H](CO)O2)c(=O)n1` [5-Aza-dC, 5-Aza-2′-deoxycytidine], for which the “ADCY3 mRNA expression level” value in the test on ADCY3 was “recovery of ADCY3 mRNA expression level”. Besides, the “methylation of CpG sites in the ADCY3 promoter” value with ADCY3 promoter is “demethylation of CpG sites”.

Values taken from patent US10435752B2, “Use of ADCY3 for diagnosis and treatment of gastric cancer” (NATIONAL CANCER CENTER, priority 2012, dated 2019).
